This is an account of results in patent publication US8778951B2, “Heteroaryl compounds and their uses” (Novartis AG, priority 2009, dated 2014).

Sequence of Cdk9/cyclinT1 (P50750 whole entry): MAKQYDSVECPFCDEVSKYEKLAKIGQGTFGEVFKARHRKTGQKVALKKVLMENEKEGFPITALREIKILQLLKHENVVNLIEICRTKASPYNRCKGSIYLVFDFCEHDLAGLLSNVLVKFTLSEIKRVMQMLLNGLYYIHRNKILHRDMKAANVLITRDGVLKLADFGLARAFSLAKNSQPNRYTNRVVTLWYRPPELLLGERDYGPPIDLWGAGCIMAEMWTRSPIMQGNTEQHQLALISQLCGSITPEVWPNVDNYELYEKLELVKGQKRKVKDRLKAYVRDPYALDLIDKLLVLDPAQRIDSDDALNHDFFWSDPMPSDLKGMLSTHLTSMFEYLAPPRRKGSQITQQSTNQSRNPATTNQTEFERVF
Sequence of Cdk9/cyclinT1 (O60563 whole entry partner): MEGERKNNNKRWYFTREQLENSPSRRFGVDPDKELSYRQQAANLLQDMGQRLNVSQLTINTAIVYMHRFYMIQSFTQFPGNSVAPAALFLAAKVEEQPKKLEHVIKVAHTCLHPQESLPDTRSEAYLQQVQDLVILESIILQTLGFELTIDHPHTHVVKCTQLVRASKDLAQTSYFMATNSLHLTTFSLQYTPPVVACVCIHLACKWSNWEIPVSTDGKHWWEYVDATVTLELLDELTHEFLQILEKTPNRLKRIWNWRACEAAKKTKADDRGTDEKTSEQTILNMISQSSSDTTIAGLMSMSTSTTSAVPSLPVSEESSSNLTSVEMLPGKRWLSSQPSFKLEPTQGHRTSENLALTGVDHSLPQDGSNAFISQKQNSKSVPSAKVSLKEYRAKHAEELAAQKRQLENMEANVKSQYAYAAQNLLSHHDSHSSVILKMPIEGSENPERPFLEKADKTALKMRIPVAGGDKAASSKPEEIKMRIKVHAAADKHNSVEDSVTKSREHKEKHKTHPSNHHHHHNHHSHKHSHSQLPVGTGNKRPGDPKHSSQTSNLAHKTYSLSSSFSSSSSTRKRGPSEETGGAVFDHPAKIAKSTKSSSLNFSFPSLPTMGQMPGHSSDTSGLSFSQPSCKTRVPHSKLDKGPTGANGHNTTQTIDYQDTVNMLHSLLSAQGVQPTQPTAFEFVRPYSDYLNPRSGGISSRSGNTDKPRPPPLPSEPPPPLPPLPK

The experiment has as its target Cdk9/cyclinT1 (Homo sapiens (Human), UniProt P50750). The experiment can be described thus: Cdk9/CyclinT1 IMAP Protocol (fluorescence polarization kinase assay). To be noted: Table 2; generated using one of the two Cdk9/cyclinT1 assays (IMAP or Alpha Screen), not specified which; unit inferred. The format is biochemical. The method in brief:
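Reaction used 4 nM Cdk9/cyclinT1, 100 nM 5TAMRA-cdk7tide peptide and 6 uM ATP in 100 mM Tris pH 7.2 with MgCl2, 0.01% Tween-20, 1 mM DTT and 2.5% DMSO, running 4.5 h. Phosphopeptide was captured by IMAP binding reagent for >1 h, then read by fluorescence polarization (ex 531/em 595 nm).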
Background: Fluorescence polarisation rises when a labelled molecule tumbles more slowly, as on binding a larger partner.
The term IC50 denotes the concentration needed to halve the response being measured. `COC[C@@H](C)N[C@H]1CC[C@H](Nc2cc(-c3nc(NCC4CCCCO4)ccc3Cl)c(Cl)cn2)CC1` (stereo in doubt) [Compound 321, 3,5′-dichloro-N2′-(trans-4-((R)-1-methoxypropan-2-yl-amino)cyclohexyl)-N6-(((S)-tetrahydro-2H-pyran-2-yl)methyl)-2,4′-bipyridine-2′,6-diamine]: the IC50 amounted to 11 nM. For the compound `Fc1cccc(CNc2cccc(-c3cc(NCCN4CCOCC4)ncc3Cl)n2)c1` [Compound 171], half-maximal inhibition (IC50) was put at 218 nM. This IC50 is about 20-fold higher than that of the compound before. `Fc1cccc(CNc2cccc(-c3cc(NC[C@H]4CCCNC4)ncc3Cl)n2)c1` [Compound 164] came in with an IC50 of 39 nM. This IC50 is about 5.6-fold lower than that of the compound before. For `CC1(C)C[C@H](CNc2cccc(-c3cc(N[C@H]4CC[C@H](N)CC4)ncc3Cl)n2)CCO1` (single isomer, unassigned) [Compound 256], the IC50 amounted to 7.94 nM. `N[C@H]1CC[C@H](Nc2ncc(Cl)c(-c3cccc(NCC4CCCCC4)n3)n2)CC1` [Compound 3, trans-N1-(5-chloro-4-(6-(cyclohexylmethylamino)pyridin-2-yl)pyrimidin-2-yl)cyclohexane-1,4-diamine] showed an IC50 of 238 nM. Consider `COCCCNc1cc(-c2cccc(NCc3cccc(F)c3)n2)c(Cl)cn1` [Compound 147], for which the midpoint of inhibition, the IC50, lay at 19.4 nM. Compared with the last compound, the IC50 is about 12-fold lower. As to `N[C@H]1CC[C@H](Nc2ncc(Cl)c(-c3cccc(NCc4cccc(F)c4)n3)n2)CC1` [Compound 34], the IC50 was 48.3 nM. `O=C(c1cccnc1)N1CCC(Nc2cc(-c3cccc(NCc4cccc(F)c4)n3)c(Cl)cn2)CC1` [Compound 87] showed an IC50 of 69 nM. This IC50 and that of the compound before are within 1.5-fold of each other. The compound `CN(C)CCCCNc1cc(-c2cccc(NCc3cccc(F)c3)n2)c(Cl)cn1` [Compound 161] returned an IC50 of 26 nM. `N[C@H]1CC[C@H](Nc2cc(-c3nc(NCC4CCOCC4)cnc3C(F)(F)F)c(Cl)cn2)CC1` [Compound 255, trans-N1-(5-chloro-4-(6-((tetrahydro-2H-pyran-4-yl)methyl)amino-3-(trifluoromethyl)pyrazin-2-yl)pyridin-2-yl)cyclohexane-1,4-diamine]: the IC50 was determined as 42.3 nM. The value for `COc1cccc(CNc2cccc(-c3cc(N[C@H]4CC[C@H](N)CC4)ncc3Cl)n2)c1` [Compound 44] was 11.2 nM; that for `Clc1cnc(NC2CCNCC2)cc1-c1cccc(NCc2ccncc2)n1` [Compound 72] was 114 nM; that for `CN(CC1CCOCC1)c1cccc(-c2cc(N[C@H]3CC[C@H](N)CC3)ncc2Cl)n1` [Compound 108] was 7.95 nM. The figure for `O[C@H]1CC[C@H](Nc2cc(-c3cccc(NCc4cccc(F)c4)n3)c(Cl)cn2)CC1` [Compound 114] is 7.95 nM; for `COCCN[C@H]1CC[C@H](Nc2cc(-c3cccc(NCC4C[C@@H](C)O[C@@H](C)C4)n3)c(Cl)cn2)CC1` (stereo partly drawn) [Compound 285, 5′-chloro-N6-(((2R,6S)-2,6-dimethyltetrahydro-2H-pyran-4-yl)methyl)-N2′-(trans-4-(2-methoxyethylamino)cyclohexyl)-2,4′-bipyridine-2′,6-diamine] it is 2 nM; for `N[C@H]1CC[C@H](Nc2cc(-c3cccc(NCc4ccc(C(F)(F)F)cc4)n3)c(Cl)cn2)CC1` [Compound 52] it is 19.2 nM.

With `CN1CCC[C@H]1C(=O)N[C@H]1CC[C@H](Nc2cc(-c3cccc(NCc4cccc(F)c4)n3)c(Cl)cn2)CC1` [Compound 80], the IC50 worked out at 31.7 nM. Take `NCCCNc1cccc(-c2cc(N[C@H]3CC[C@H](O)CC3)ncc2Cl)n1` [Compound 118]: the IC50 turned out to be 139 nM. For `Cc1cnc(N[C@H]2CC[C@H](N)CC2)cc1-c1cccc(NCc2cccc(F)c2)n1` [Compound 211, N2′-(trans-4-aminocyclohexyl)-N6-(3-fluorobenzyl)-5′-methyl-2,4′-bipyridine-2′,6-diamine], the IC50 is 21 nM. In turn, `N[C@H]1CC[C@H](Nc2cc(-c3cccc(NCc4cccc(F)c4)n3)c(Cl)cn2)C1` [Compound 192] had an IC50 of 7.94 nM.

Turning to `NC(=O)c1ncc(-c2cc(N[C@H]3CC[C@H](N)CC3)ncc2Cl)nc1NCC1CCOCC1` [Compound 224, 5-(2-(trans-4-aminocyclohexylamino)-5-chloropyridin-4-yl)-3-((tetrahydro-2H-pyran-4-yl)methyl)aminopyrazine-2-carboxamide], the IC50 is 91.9 nM. Turning to `N[C@H]1CC[C@H](Nc2cc(-c3cccc(NCc4ccccc4)n3)c(Cl)cn2)CC1` [Compound 25], inhibition was half-maximal at 8.08 nM (IC50).

The compound `C[C@@H]1CC(CNc2cccc(-c3cc(N[C@H]4CC[C@H](N)CC4)ncc3Cl)n2)C[C@H](C)O1` (stereo partly drawn) [Compound 284, N2′-(trans-4-aminocyclohexyl)-5′-chloro-N6-(((2R,6S)-2,6-dimethyltetrahydro-2H-pyran-4-yl)methyl)-2,4′-bipyridine-2′,6-diamine] gave a 50% inhibitory concentration (IC50) of 1 nM. The value for `COCCN[C@H]1CC[C@H](Nc2cc(-c3nc(NCC4CCOCC4)ccc3Br)c(Cl)cn2)CC1` [Compound 292, 3-bromo-5′-chloro-N2′-(trans-4-(2-methoxyethylamino)cyclohexyl)-N6-((tetrahydro-2H-pyran-4-yl)methyl)-2,4′-bipyridine-2′,6-diamine] was 2 nM.

Turning to `N[C@H]1CC[C@H](Nc2cc(-c3cccc(NCC4CCCCCC4)n3)c(Cl)cn2)CC1` [Compound 75], the IC50 worked out at 13.5 nM.

`CCCCNc1cc(-c2cccc(NCc3cccc(F)c3)n2)c(Cl)cn1` [Compound 173] displayed an IC50 of 62 nM. Compared with the last compound, the IC50 is about 4.6-fold higher. The compound `CN(C)[C@H]1CC[C@H](Nc2cc(-c3cccc(NCC4(C#N)CCOCC4)n3)c(Cl)cn2)CC1` [Compound 361, 4-((5′-chloro-2′-((1r,4r)-4-(dimethylamino)cyclohexylamino)-2,4′-bipyridin-6-ylamino)methyl)tetrahydro-2H-pyran-4-carbonitrile] returned an IC50 of 0.3 nM. The value for `COC[C@@H](C)N[C@H]1CC[C@H](Nc2cc(-c3cccc(NCC4(OC)CCOCC4)n3)c(Cl)cn2)CC1` [Compound 305] was 1 nM.

Compound `N[C@H]1CC[C@H](Nc2cc(-c3cccc(NCC4(F)CCOCC4)n3)c(Cl)cn2)CC1` [Compound 313, N2′-(trans-4-aminocyclohexyl)-5′-chloro-N6-((4-fluorotetrahydro-2H-pyran-4-yl)methyl)-2,4′-bipyridine-2′,6-diamine] showed an IC50 of 1 nM. That is a single-digit nanomolar value.

The compound `Clc1cnc(N[C@@H]2CCCNC2)cc1-c1cccc(NCc2ccncc2)n1` [Compound 93] showed an IC50 of 928 nM. The figure for `Fc1cc(F)cc(CNc2cccc(-c3cc(N[C@H]4CC[C@H](N5CCCC5)CC4)ncc3Cl)n2)c1` [Compound 23, 5′-chloro-N6-(3,5-difluorobenzyl)-N2′-(trans-4-(pyrrolidin-1-yl)cyclohexyl)-2,4′-bipyridine-2′,6-diamine] is 7.95 nM. Take `N[C@H]1CC[C@H](Nc2cc(-c3cccc(NCc4ccc(OC(F)F)cc4)n3)c(Cl)cn2)CC1` [Compound 53]: the IC50 was found to be 11.1 nM. `N#Cc1ccc(-c2cc(N[C@H]3CC[C@H](N)CC3)ncc2Cl)nc1NCc1cccc(F)c1` [Compound 13, 2′-((1r,4r)-4-amonocyclohexylamino)-5′-chloro-6-(3-fluorobenzylamino)-2,4′-bipyridine-5-carbonitrile] had an IC50 of 7.95 nM.

As for `Clc1cnc(NC[C@H]2CCCN2)cc1-c1cccc(NCC2CCOCC2)n1` [Compound 303], the midpoint of inhibition, the IC50, lay at 1300 nM. In turn, `C[C@H]1C[C@@H](Nc2cc(-c3cccc(NCc4cccc(F)c4)n3)c(Cl)cn2)CC[C@@H]1N` (stereo in doubt) [Compound 152] gave an IC50 of 27 nM. Regarding `NC[C@H]1CC[C@H](Nc2cc(-c3cccc(NCc4ccc(F)cc4)n3)c(Cl)cn2)CC1` [Compound 66], inhibition was half-maximal at 17.1 nM (IC50). Compound `O[C@H]1CC[C@H](Nc2cc(-c3cncc(NCC4CCOCC4)n3)c(Cl)cn2)CC1` [Compound 208, trans-4-(5-chloro-4-(6-((tetrahydro-2H-pyran-4-yl)methyl)aminopyrazin-2-yl)pyridin-2-yl-amino)cyclohexanol] displayed an IC50 of 7.94 nM.

The compound `COC[C@@H](C)N[C@H]1CC[C@H](Nc2cc(-c3cccc(NCC4(CO)CCOCC4)n3)c(Cl)cn2)CC1` [Compound 349, (4-((5′-chloro-2′-(trans-4-((R)-1-methoxypropan-2-ylamino)cyclohexylamino)-2,4′-bipyridin-6-ylamino)methyl)tetrahydro-2H-pyran-4-yl)methanol] came in with an IC50 of 1 nM.

As to `N[C@H]1CC[C@H](Nc2cc(-c3cccc(NCc4ccncc4)n3)ccn2)CC1` [Compound 33], the IC50 stood at 27 nM. `NC[C@H]1CC[C@H](Nc2cc(-c3cccc(NCc4cccnc4)n3)c(Cl)cn2)CC1` [Compound 58] showed an IC50 of 31.2 nM.

In turn, `N[C@H]1CC[C@H](Nc2cc(-c3cccc(NCc4cc(F)ccc4F)n3)c(Cl)cn2)CC1` [Compound 39] gave an IC50 of 8.9 nM. On to `CCc1ncc(-c2cc(N[C@H]3CC[C@H](N)CC3)ncc2Cl)nc1NCC1CCOCC1` [Compound 241, trans-N^1-(5-chloro-4-(5-ethyl-6-((tetrahydro-2H-pyran-4-yl)methyl)aminopyrazin-2-yl)pyridin-2-yl)cyclohexane-1,4-diamine], for which the IC50 is 61.8 nM. Regarding `CCOC(=O)c1coc(N[C@H]2CC[C@H](Nc3cc(-c4cccc(NCc5cccc(F)c5)n4)c(Cl)cn3)CC2)n1` [Compound 155, Ethyl 2-(trans-4-(5′-chloro-6-(3-fluorobenzylamino)-2,4′-bipyridin-2′-yl-amino)cyclohexylamino)oxazole-4-carboxylate], the IC50 came to 23 nM. On to `N[C@H]1CC[C@H](Nc2cc(-c3cccc(NCc4cccc(O)c4)n3)c(Cl)cn2)CC1` [Compound 49], for which the midpoint of inhibition, the IC50, lay at 14.4 nM. Against the preceding compound, the IC50 is about 1.6-fold lower. The compound `N[C@H]1CC[C@H](Nc2cc(-c3cccc(NCc4ccc(Cl)cc4)n3)c(Cl)cn2)CC1` [Compound 55] yielded a 50% inhibitory concentration (IC50) of 7.95 nM.

Compound `CCS(=O)(=O)N1CCC(Nc2cc(-c3cccc(NCc4cccc(F)c4)n3)c(Cl)cn2)CC1` [Compound 6, 5′-chloro-N2′-(1-(ethylsulfonyl)piperidin-4-yl)-N6-(3-fluorobenzyl)-2,4′-bipyridine-2′,6-diamine] had an IC50 of 136 nM.
